Data taken from patent US8609725B2, “Method of using beta-hydroxy-beta-methylbutyrate for reducing tumor growth rate” (Abbott Laboratories, priority 2004, dated 2013).

Experiments:
I-κBα = assay: PIF-induced degradation of I-κBα in murine myotubes; assay type: cell-based; details: 50 μM HMB
Protocol: For Western blot analysis, cytosolic protein (2 to 5 μg) obtained for the above assay were resolved on 10% SDS-PAGE and transferred to 0.45 μm nitrocellulose membrane, which had been blocked with 5% Marvel in PBS, at 4° C. overnight. The primary antibodies were used at a dilution of 1:100 (anti-actin and PKCα); 1:500 (anti-ERK1 and 2); 1:1000 (anti-20S proteasome β-subunit and I-κBα); 1:1500 (anti-20S proteasome α-subunit) or 1:5000 (anti-p42), while the secondary antibodies were used at a dilution of 1:2000. Incubation was carried out for 2 h at room temperature and development was by ECL. Loading was quantitated by actin concentration. The in vitro study described in Example III above also evaluated the effect of HMB on molecules that are key mediators in the pathway of inflammation. This experiment was conducted as described in Example III.

proteasome = assay: Functional proteasome 'chymotrypsin-like' enzyme activity in gastrocnemius muscle of MAC16 mice; assay type: in vivo, NMRI mice; details: HMB 0.25 g/kg, EPA 0.6 g/kg or combination, 3 days
Protocol: Functional proteasome activity was determined by measuring the ‘chymotrypsin-like’ enzyme activity, the predominant proteolytic activity of the β-subunits of the proteasome according to the method of Orino, E. et al. ATP-dependent reversible association of proteasomes with multiple protein components to form 26S complexes that degrade ubiquitinated proteins in human HL-60 cells. FEBS Lett., 284: 206-210, 1991. Muscles were rinsed with ice-cold PBS, minced and sonicated in 20 mM Tris. HCl, pH 7.5, 2 mM ATP, 5 mM MgCl2 and 1 mM DTT. The sonicate was then centrifuged for 10 min at 18,000 g, at 4° C. and the supernatant was used to determine ‘chymotrypsin-like’ enzyme activity by the release of aminomethyl coumarin (AMC) from the fluorogenic substrate succinyl-LLVY-AMC. Activity was measured in the absence and presence of the specific proteasome inhibitor lactacystin (10 μM). Only lactacystin suppressible activity was considered to be proteasome specific.

[1] = test system: 20S proteasome α-subunits; assay: Western blotting of 20S proteasome α-subunits in gastrocnemius muscle of MAC16 mice; assay type: in vivo, NMRI mice
[2] = test system: soleus muscle of mice bearing the MAC16 tumor; assay: Soleus muscle weight and protein degradation (tyrosine release) in MAC16 mice; assay type: in vivo, NMRI mice; details: EPA 0.6 g/kg, HMB 0.25 g/kg or the combination for 3 days
From the text: Pure strain male NMRI mice (average weight 25 g) were obtained from our own inbred colony and were transplanted with fragments of the MAC16 tumor s.c. into the flank by means of a trochar, selecting from donor animals with established weight loss as described in Bibby, M. C. et al. Characterization of a transplantable adenocarcinoma of the mouse colon producing cachexia in recipient animals. J. Natl. Cancer Inst., 78: 539-546, 1987. Transplanted animals were fed a rat and mouse breeding diet (Special Diet Services, Witham, United Kingdom) and water ad libitum, and weight loss was evident 10-12 days after tumor implantation. Animals just prior to the development of weight loss were randomized to receive daily either EPA (in olive oil), HMB (in PBS) or the combination as described in the figure legends administered p.o. by gavage, while control animals received either olive oil or PBS. EPA (98% as free acid) was purchased from Biomol Research Laboratories Inc., PA, USA. HMB (as the calcium salt) was obtained from Abbott Laboratories, Columbus, Ohio, USA. All groups contained a minimum of 6 mice. Tumor volume, body weight and food and water intake were monitored daily. […] Protein degradation was determined by the release of tyrosine over a 2 h period as described in […]. et al. A fluorimetric method for the estimation of tyrosine in plasma and tissues. […]

NF-κB = NF-κB nuclear accumulation / binding to DNA (EMSA) in murine myotubes; assay type: cell-based
Protocol: DNA binding proteins were extracted from myotubes by the method of Andrews, N. C. et al. A rapid micropreparation technique for extraction of DNA-binding proteins from limiting numbers of mammalian cells. Nucleic Acids Res., 19: 2499, 1991, which utilizes hypotonic lysis followed by high salt extraction of nuclei. The EMSA (electrophoretic mobility shift assay) binding assay was carried out according to the manufacturer's instructions. The in vitro study described in Example III above also evaluated the effect of HMB on molecules that are key mediators in the pathway of inflammation. This experiment was conducted as described in Example III.

[3] = test system: β subunits of the proteasome; assay: 'Chymotrypsin-like' enzyme activity in PIF-treated murine myotubes; assay type: cell-based
Protocol: The functional activity of the β subunits of the proteasome was determined as the ‘chymotrypsin-like’ enzyme activity obtained fluorimetrically according to the method of Orino, E. et al. ATP-dependent reversible association of proteasomes with multiple protein components to form 26S complexes that degrade ubiquitinated proteins in human HL-60 cells. FEBS Lett., 284: 206-210, 1991. Myotubes were exposed to PIF for 24 h with or without EPA or HMB added 2 h prior to PIF and enzyme activity was determined in a supernatant fraction (Whitehouse, A. S. et al. Increased expression of the ubiquitin-proteasome pathway in murine myotubes by proteolysis-inducing factor (PIF) is associated with activation of the transcription factor NF-κB. Br. J. Cancer, 89: 1116-1122, 2003) by the release of aminomethyl coumarin (AMC) from succinyl-LLVY-AMC (0.1 mM) in the presence or absence of the specific proteasome inhibitor lactacystin (10 μM) (Fenteany, G. et al. Lactacystin, proteasome function and cell fate. J. Biol. Chem., 273: 8545-8548, 1998). Only lactacystin suppressible activity was considered to be proteasome specific. Activity was adjusted for the protein concentration of the sample, determined using the Bradford assay (Sigma Chemical Co., Dorset, United Kingdom) using bovine serum albumin as standard.

[4] = test system: mice bearing the MAC16 tumor; assay: Body composition analysis of mice bearing the MAC16 tumor; assay type: in vivo
From the text: Materials and animals were obtained as per Example 1.

inhibition of binding of NF-κB to DNA (NF-κB; 25 μM HMB): Only partial inhibition | nuclear accumulation of NF-κB (NF-κB; 50 μM HMB): prevent nuclear accumulation of NF-κB | attenuation of PIF-induced increase in 'chymotrypsin-like' enzyme activity ([3]; 25 μM HMB): completely attenuated | attenuation of PIF-induced increase in 'chymotrypsin-like' enzyme activity ([3]; 50 μM): completely attenuated
SMILES: CC(C)(O)CC(=O)O [HMB, beta-hydroxy-beta-methylbutyric acid]
attenuation of I-κBα degradation in the presence of PIF (I-κBα): effectively attenuate | functional proteasome activity ('chymotrypsin-like' enzyme activity) (proteasome): attenuated | expression of 20S proteasome α-subunits ([1]; HMB 0.25 g/kg, EPA 0.6 g/kg or combination, 3 days): attenuated | reduction of protein expression of 20S α-subunits ([1]; summary of Examples I-IV): at least 50% | tyrosine release (total protein degradation in soleus muscle) [2]: as effective as EPA | Fat (%) ([4]; HMB 0.125 g/kg for 5 days): 3.3 ± 1.6% | Nonfat (%) ([4]; HMB 0.125 g/kg for 5 days): 31.2 ± 1.5 % | Water (%) ([4]; HMB 0.125 g/kg for 5 days): 65.5 ± 0.9% | Fat (%) ([4]; HMB 0.25 g/kg for 5 days): 4.4 ± 1.3% | Nonfat (%) ([4]; HMB 0.25 g/kg for 5 days): 29.2 ± 1.9 % | Water (%) ([4]; HMB 0.25 g/kg for 5 days): 66.5 ± 2.2% | Fat (%) ([4]; HMB 0.5 g/kg for 5 days): 3.8 ± 1.2% | Nonfat (%) ([4]; HMB 0.5 g/kg for 5 days): 29.0 ± 1.4 % | Water (%) ([4]; HMB 0.5 g/kg for 5 days): 67.2 ± 2.3% | adipose tissue ([4]; HMB for 5 days, in words): without an effect | nonfat carcass mass ([4]; HMB for 5 days, in words): significant increase
